Data reported in paper PMC8231118, “Evaluating the Antioxidants, Whitening and Antiaging Properties of Rice Protein Hydrolysates” (Molecules, 2021).
Converted amounts (≈) assume the structure as drawn.

Target: T1, mushroom tyrosinase
T1 construct: gene PPO3
Experiment: dopachrome absorbance at […] nm
Type: biochemical
Details: L-DOPA substrate (1.25 mM solution), 20 mM phosphate pH 6.8, 37 °C, 30 min

IC50: 98 µg/mL (≈ 556 µM)
SMILES: O=C1O[C@H]([C@@H](O)CO)C(O)=C1O [ascorbic acid]
